Experimental data taken from ChEMBL document CHEMBL3301361, “Experimental in vitro DMPK and physicochemical data on a set of publicly disclosed compounds”.

Experiment: physchem
Settings: octan-1-ol/water, pH 7.4, LogD7.4
With `CCN1CCN(CC(=O)Nc2ccc(-c3cccc4c(=O)cc(N5CCOCC5)oc34)c3sc4ccccc4c23)CC1` the logD was 3.05.
With `Fc1ccc(C(COCc2cc(C(F)(F)F)cc(C(F)(F)F)c2)N2CCNCC2)cc1` (stereo not given) the logD was 3.
Work on `FC(F)(F)c1cc(COCC(c2ccccc2)N2CCNCC2)cc(C(F)(F)F)c1` (stereo not given) yielded a logD of 2.9.
`CC(C)Cn1c(=O)[nH]c(=O)c2c(C(=O)N3CCC3)c(Cc3ccccc3C(F)(F)F)sc21` showed a logD of 3.
Work on `CCCc1c(OCCCOc2ccc3c(=O)cc(C(=O)O)oc3c2CCC)ccc(C(C)=O)c1O` yielded a logD of 3.
`CNc1ccc2ncc(-c3cccc(O)c3)n2n1` gave a logD of 2.99.
`CS(=O)(=O)c1cccc(Nc2nccc(Nc3cccc4ocnc34)n2)c1` showed a logD of 2.9.
`COc1c(C#N)cc2ccccc2c1C(=O)N(C)C[C@@H](CCN1CCC(N2CCCNC2=O)CC1)c1ccc(Cl)c(Cl)c1` showed a logD of 3.
`NC(=O)c1cnc(N[C@H]2CCCNC2)c2cc(-c3ccc(F)c(Cl)c3)sc12` gave a logD of 2.94.
With `O=C(COCc1cscn1)N1CCN(c2ccc(Cl)cc2Cl)CC1` the logD was 3.07.
With `Cc1cc(NC(=O)Nc2ccc(Cl)cc2)n(C)n1` the logD was 2.96.
In the case of `NC(=O)c1sc2nccc(Nc3ccccc3)c2c1N`, the logD is reported as 2.91.
Molecule `COc1ccc(Cn2c(=O)[nH]c3c(=O)n(CC(=O)NC(C(=O)C(F)(F)F)C(C)C)c(-c4ccccc4)cc3c2=O)cc1` (stereo not given) has a logD of 2.93.
In the case of `O=C(Cc1ccccn1)c1ccc(Cl)cc1`, the logD is reported as 2.96.
In the case of `CC(O)(C(=O)Nc1ccc(S(=O)(=O)c2ccccc2)cc1)C(F)(F)F` (stereo not given), the logD is reported as 2.98.
For `COc1ccccc1C(=O)Nc1nc2ccccc2[nH]1`, the logD was 2.9.
Molecule `CSc1ncccc1C(=O)NCC1CCCCC1` has a logD of 2.93.
Molecule `CCOc1ccc(-c2cnc3n2CCCCC3)cc1` has a logD of 3.01.
Work on `Cc1cc(Nc2ncc(F)c(N[C@H]3[C@@H](C(N)=O)[C@@H]4C=C[C@H]3C4)n2)ccc1N1CCN(C)CC1` yielded a logD of 2.9.
`CCCc1c(OCc2cccc(NC(=O)Cc3ccccc3C(=O)O)c2)ccc(C(C)=O)c1O` gave a logD of 2.95.
For `O=c1ccnc2cc(C#Cc3ccccc3)ccn12`, the logD was 2.9.
`O=C1CCOc2nc(C#CC3CCCC3)ccc21` showed a logD of 3.
In the case of `O=C(NCc1ccccc1)c1cccnc1Oc1ccccc1`, the logD is reported as 3.
For `C#CC(C)(C)NC(=O)c1sccc1Oc1ccc(F)cc1[N+](=O)[O-]`, the logD was 3.
In the case of `FC(F)(F)c1nnc2ccc(N3CCCCC3)nn12`, the logD is reported as 3.
Work on `CSc1ccc(-c2nc(-c3ccc(F)cc3)c(-c3ccncc3)[nH]2)cc1` yielded a logD of 2.97.
In the case of `CCCC(=O)NCc1cncc(-c2ccc(F)cc2OC)c1`, the logD is reported as 2.9.
Work on `COc1cc(F)ccc1-c1cncc(CNC(=O)C2CC2)c1` yielded a logD of 2.9.
For `COc1cc(N2CCN(C(C)=O)CC2)ccc1Nc1nccc(-c2cnc3ccccn23)n1`, the logD was 3.
With `CCOc1ccc(Oc2ccc(S(=O)(=O)NC(=O)c3cccc(-c4ccc(Cl)c(Cl)c4)c3)cc2)cc1` the logD was 2.94.
With `CC(=O)Nc1ccc(CC(=O)N(C)C2CCN(CCC(c3ccccc3)c3ccccc3)CC2)cc1` the logD was 2.9.
Work on `O=S(=O)(Nc1cc(F)ccc1F)c1ccc(Cl)cc1` yielded a logD of 2.9.
For `CC(=O)N[C@@H]1CC2(CCN(Cc3ccc4[nH]c5ccccc5c4c3)CC2)c2ccccc21`, the logD was 2.96.
Work on `CNc1c(Br)cnc2nc(-c3ccc(OCCCN4CCOCC4)cc3)[nH]c12` yielded a logD of 2.96.
For `O=C(Nc1ccc(N2CCOCC2)nc1)c1nnc(Nc2ccc(F)c(F)c2)o1`, the logD was 2.9.
In the case of `Cc1ccc(-c2ncc[nH]2)cc1NC(=O)c1ccc(OCc2ccccn2)cc1`, the logD is reported as 3.01.
Molecule `Cc1nc(-c2ccc(C)c(NC(=O)c3ccc(OCc4ccccn4)cc3)c2)c[nH]1` has a logD of 2.97.
For `CC(=O)N(C)c1ccc2ccn(-c3cc(NC4CC4)n4ncc(C#N)c4n3)c2c1`, the logD was 2.9.
For `CC(=O)Nc1ccc2c(c1)c(-c1cc(NC3CC3)n3ncc(C#N)c3n1)cn2C`, the logD was 2.94.
`C[C@@H]1CN(C(=O)OC(C)(C)C)CCN1c1ncc(OCc2ccc(S(C)(=O)=O)cn2)cn1` showed a logD of 3.
For `C[C@@H]1CN(C(=O)OCC(F)(F)F)CCN1c1ncc(OCc2ccncc2C#N)cn1`, the logD was 3.
In the case of `Cn1cc(C#N)cc1-c1c2c(=O)n(CCO)c(=O)n(CC3CC3)c2nn1Cc1ccnc2ccc(Cl)cc12`, the logD is reported as 3.
With `COc1ccc(NC(=O)CSc2nnc(C)n2-c2ccc(C)cc2)cc1` the logD was 2.94.
`COc1cc(OC2CCN(C)CC2)c2c(Nc3c(Cl)ccc4c3OCO4)ncnc2c1` showed a logD of 2.98.
Work on `O=C(NS(=O)(=O)c1cccc(C(F)(F)F)c1)N1CCC(N2CCC(Oc3ccc(Cl)c(Cl)c3)CC2)CC1` yielded a logD of 2.94.
`Cc1cn(C2CCCN(Cc3cccc(Oc4ccccc4)c3)C2)c(=O)[nH]c1=O` (stereo not given) showed a logD of 3.04.
With `Nc1ncccc1NCc1cccc(-c2cccnc2)c1` the logD was 3.
`Cc1cc(Cl)ccc1OC1CCN(C[C@H](O)CNC(=O)c2c[nH]c(=O)c3c(F)cccc23)CC1` showed a logD of 3.
Molecule `CNc1cc(C(=O)Nc2ccc(N3CCOCC3)cc2)nc2c(N3CCN(C)CC3)cc(OC)cc12` has a logD of 2.93.
Molecule `COCCC(NC(=O)C1(N)CCN(c2ncnc3[nH]ccc23)CC1)c1ccc(Cl)cc1` (stereo not given) has a logD of 2.95.
In the case of `O=C(NC1Cc2ccccc2N(CCO)C1=O)c1cc2cc(Cl)sc2[nH]1` (stereo not given), the logD is reported as 3.05.
For `COCCC(=O)NC(C)c1ccc(Nc2ncc3cc(-c4ccncc4)ccc3n2)cc1` (stereo not given), the logD was 2.98.
Work on `COCCC(=O)N[C@@H](C)c1ccc(Nc2ncc3cc(-c4ccncc4)ccc3n2)cc1` yielded a logD of 3.05.
`C[C@@H](NC1=CC(=O)NCC1)c1ccc(Nc2ncc3cc(-c4ccncc4)ccc3n2)cc1` showed a logD of 3.02.
Work on `CC(C)C[C@H](CO)Nc1nc(SCc2ccncc2)nc2nc(N)sc12` yielded a logD of 2.9.
Molecule `NS(=O)(=O)c1cccc(Nc2nccc(Nc3c(Cl)ccc4c3OCO4)n2)c1` has a logD of 2.97.
In the case of `COc1cccc([C@@H](C)NCCCc2ccccc2Cl)c1`, the logD is reported as 3.
In the case of `O=C1C(=O)c2cc(-c3ccccc3F)ccc2-c2ccccc21`, the logD is reported as 2.92.
With `COc1ccc(-n2sc3ccccc3c2=O)cc1` the logD was 3.02.
Work on `CC(=O)NC[C@H]1CN(c2ccc(N3Cc4ccncc4C3)c(F)c2)C(=O)O1` yielded a logD of 3.02.
`CC(C)C(NC(=O)Cn1c(-c2cccnc2)ccc(NC(=O)OCc2ccccc2)c1=O)C(=O)C(F)(F)F` (stereo not given) gave a logD of 3.05.
With `CC(c1ccccc1)N1Cc2ccccc2C1=O` (stereo not given) the logD was 3.
Molecule `CNC(=O)c1ccc(Nc2ncc(F)c(-c3cnc(C)n3C(C)C)n2)cc1` has a logD of 3.
Molecule `CNC(=O)c1ccc(Nc2nccc(-c3cnc(C)n3C(C)C)n2)cc1F` has a logD of 2.95.
`COc1ccc(N(C(=O)c2ccccc2)C(C)C(=O)NC2CCCC2)c(OC)c1` (stereo not given) gave a logD of 3.02.
`COc1cc2ncc(C(N)=O)c(Nc3ccc(F)cc3F)c2cc1OC` showed a logD of 2.95.
Molecule `Cc1oc2cc(O)ccc2c(=O)c1-c1ccccc1` has a logD of 2.95.
With `COC(=O)CCCC(=O)Nc1ccc2c(c1)-c1ccccc1C(=O)C2=O` the logD was 2.96.
`CC(C)(C)NC(=O)[C@@H]1CN(Cc2cccnc2)CCN1C[C@@H](O)C[C@@H](Cc1ccccc1)C(=O)N[C@H]1c2ccccc2C[C@H]1O` showed a logD of 2.9.
Molecule `O=C(CC1CCN(Cc2ccn(-c3ccc(C(F)(F)F)cc3)c2)CC1)N(CCCO)Cc1ccc(F)cc1` has a logD of 3.04.
For `O=C(CC1CCN(Cc2ccn(-c3ccc(C(F)(F)F)cc3)c2)CC1)NC(c1ccc(F)cc1)c1ccc(=O)[nH]c1` (stereo not given), the logD was 3.04.
For `CS(=O)(=O)c1ccc(C(CCNC(=O)c2ccc(C#N)cc2)c2ccc(F)cc2)cc1` (stereo not given), the logD was 2.9.
In the case of `CN1CCN(c2nc(NCCNc3ccc([N+](=O)[O-])cc3)c3ccccc3n2)CC1`, the logD is reported as 2.91.
`O=c1oc2ccccc2cc1-c1ccc(O)cc1` gave a logD of 3.
In the case of `C=CCNS(=O)(=O)c1ccc(NC(=O)[C@@](C)(O)C(F)(F)F)c(Cl)c1`, the logD is reported as 3.07.
